Reference: patent publication US6509027B2, “Injectable pharmaceutical composition comprising coated particles of camptothecin” (priority 2001, dated 2003)

How the values were obtained:
[1] = system: A375 human melanoma xenografts; experiment: A375 human melanoma xenograft study 1, tumor growth delay method; type: in vivo, athymic nude mice
Source text: The following study evaluates two intravenous formulations according to the present invention against human tumor xenografts in athymic nude mice. The study used the A375 human melanoma xenograft model to compare the in vivo antitumor efficacy of I.V. 9-nitro-camptothecin, in vehicles containing IDD-P which provides a particulate suspension of 9-nitro-camptothecin, and IDD-D which provides a droplet suspension of 9-nitro-camptothecin, to the efficacy of oral 9-nitro-camptothecin and intraperitoneal CAMPTOSAR®, HYCAMTIN®, and DTIC®. Examples 1 and 2 describe the compositions of IDD-P (FIG. 1; formulation 1-F) and IDD-D respectively.
In order to assess antitumor efficacy, groups of athymic nude mice (n=10) bearing ˜72-mg A375 melanomas were treated intravenously on the 5/2/5 schedule with 9-nitro-camptothecin in IDD-P at 3.0 mg/kg or 1.5 mg/kg and 9-nitro-camptothecin in IDD-D at 2.0 mg/kg or 1.0 mg/kg.
Female nude mice were 16 weeks of age (NCR-nuJBr; Taconic Farms) for the A375 study. The mice were fed ad libitum water (reverse osmosis, 1 ppm Cl) and autoclaved Prolab NIH-31 M/5% Rodent Diet consisting of 18% protein, 5% fat, 6% fiber, and 8% ash. Mice were housed in static microisolators on a 12-hour light cycle at 21-22° C. (70-72° F.) and 40%-60% humidity. The animal care and use program is AAALAC International accredited and specifically follows and complies with the recommendation of the National Research Council's Guide for the Care and Use of Laboratory Animals.
An A375 melanoma fragment (1 mm 3) was implanted subcutaneously in the flank of each nude mouse. When the tumors reached the 60-112 mg size range, the mice were sorted into treatment groups (on Day 1) such that the group mean tumor sizes ranged from 71.3 mg-72.5 mg. Estimated tumor weight was calculated using the formula: [formula]
IDD-P with a mean particle size of […] and IDD-D with a mean particle size of […] were prepared for the study by RTP Pharma Inc. For this, the 9-nitro-camptothecin suspensions were diluted with water and vehicle to provide doses of 3 mg/kg and 1.5 mg/kg in 33% IDD-P, and doses of 2 mg/kg and 1 mg/kg in 100% and 50% IDD-D, respectively. After dilution, 9-nitro-camptothecin suspensions were mixed thoroughly by gentle agitation and stored at 2-8° C. For its oral formulation, 9-nitro-camptothecin was dissolved in DMA (N,N-dimethylacetamide, SIGMA) and diluted with D5W to yield a final DMA concentration of 3%. CAMPTOSAR®, DTIC®, and HYCAMTIN® were obtained as the marketed drugs and solutions were prepared fresh on the day of dosing. […]
The tumor growth delay (TGD) method was used to assess efficacy. Tumor dimensions were measured twice weekly until the experiment was terminated on Day 62. […]

[2] = Evaluation of toxicity in the A375 melanoma study; type: in vivo, athymic nude mice; conditions: Group 7: 150 mg/kg I.P., qd×5
Description: Volumes of 0.20 ml per 20-g mouse, body-weight adjusted, were administered once daily. Tumor-bearing athymic nude mice were matched on Day 1 into 13 groups of ten animals and drug administration was initiated. The I.V. formulations of 9-nitro-camptothecin were given once daily on a 5/2/5 schedule as shown in the protocol summary shown in FIG. 4. Oral 9-nitro-camptothecin doses were given on a q3d×4 schedule (Days 1, 4, 8, and 11). Three reference drugs were administered I.P.: CAMPTOSAR® was given in three doses at weekly intervals (qwk×3); HYCAMTIN® was given in four doses at four-day intervals (q4d×4); and DTIC® was given in five consecutive daily doses (qd×5). The tumor growth control group for these reference treatments received no treatment (Group 1). The 9-nitro-camptothecin vehicle: 33.3% IDD-P, 100% IDD-D, and 3% DMA, was administered to vehicle control Groups 2-4, respectively.
The maximum tolerated dose (MTD), as defined by the NCI, is the highest dose at which no more than 10% of the animals die and the group mean body-weight loss is no more than 20%. Body weights were measured daily for four or five days and then twice weekly thereafter until the experiments were terminated on Day 62 of the study. […] Because mice are not tagged for MTD studies, only the mean group body weights recorded in the appended raw data are significant in those studies.

[3] = i.v., clinical trials; cited from earlier work
[4] = biological target: human serum albumin (HSA) (Homo sapiens, UniProt P02768); conditions: PBS at pH 7.4; cited from earlier work
Chain of human serum albumin (HSA) (P02768 25-609): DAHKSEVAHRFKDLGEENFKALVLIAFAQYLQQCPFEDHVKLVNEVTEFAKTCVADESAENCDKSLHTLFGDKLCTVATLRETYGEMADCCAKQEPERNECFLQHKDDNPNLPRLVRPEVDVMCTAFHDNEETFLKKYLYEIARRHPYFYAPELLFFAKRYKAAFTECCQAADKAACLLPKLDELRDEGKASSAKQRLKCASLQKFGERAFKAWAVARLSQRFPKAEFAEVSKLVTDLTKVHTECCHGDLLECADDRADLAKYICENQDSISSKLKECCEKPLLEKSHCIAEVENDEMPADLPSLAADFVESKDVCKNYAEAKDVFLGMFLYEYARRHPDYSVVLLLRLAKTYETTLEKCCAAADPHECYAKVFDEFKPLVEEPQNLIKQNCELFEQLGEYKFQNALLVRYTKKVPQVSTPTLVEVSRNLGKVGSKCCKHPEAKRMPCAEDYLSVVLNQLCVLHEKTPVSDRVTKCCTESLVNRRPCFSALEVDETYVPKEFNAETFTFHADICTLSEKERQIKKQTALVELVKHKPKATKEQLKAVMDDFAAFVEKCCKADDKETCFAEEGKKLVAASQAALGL

For `CCc1c2c(nc3ccc(OC(=O)N4CCC(N5CCCCC5)CC4)cc13)-c1cc3c(c(=O)n1C2)COC(=O)[C@]3(O)CC` [CAMPTOSAR®, irinotecan], the “62-day survivors (of 10 mice)” value ([1]; Group 5: 100 mg/kg I.P., qwk×3) was “one” and the “complete regression (CR) responses on Day 62” value ([1]; Group 5: 100 mg/kg I.P., qwk×3, 100 mg/kg) was “single and one”.
For `CN(C)/N=N/c1[nH]cnc1C(N)=O` [DTIC®, dacarbazine], the “toxic deaths (of 10 mice)” value [2] was “one and One”.
With `CC[C@@]1(O)C(=O)OCc2c1cc1n(c2=O)Cc2cc3c(CN(C)C)c(O)ccc3nc2-1` [HYCAMTIN®, topotecan] the “62-day survivors (of 10 mice)” value ([1]; Group 6: 10 mg/kg I.P., q4d×4) was “one” and the “complete regression (CR) responses on Day 62” value ([1]; Group 6: 10 mg/kg I.P., q4d×4, 10 mg/kg) was “single and one”.
For `CC[C@@](O)(C(=O)[O-])c1cc2n(c(=O)c1CO)Cc1cc3ccccc3nc1-2.[Na+]` [Sodium camptothecin], the clinical activity [3] is given as “antitumor activity” and the clinical side effects [3] is given as “unpredictable side effects such as myelosuppression and hemorrhagic cystitis”.
In the case of `CC[C@@]1(O)C(=O)OCc2c1cc1n(c2=O)Cc2cc3ccccc3nc2-1` [camptothecin, 20(S)-camptothecin], the “affinity of HSA for the carboxylate form relative to the α-hydroxy lactone form” value [4] is given as 150 fold.
